Values of other authors in US20080102106A1, “Wound Healing Composition Comprising Substances From Diptera Larvae” (ALPHA-BIOCARE GMBH, priority 2005, published 2008).

Conditions: many cases of use in humans, dermatological studies

| Compound | wound healing effect |
| --- | --- |
| NC(=O)NC1NC(=O)NC1=O (stereo not drawn) [allantoin] | do not have any wound healing effect |
| N [ammonium] | do not have any wound healing effect |
| NC(N)=O [urea] | do not have any wound healing effect |
